Experimental data taken from US10508120B2, “TYK2 inhibitors and uses thereof” (Nimbus Lakshmi, Inc., priority 2017, dated 2019).
Where two headings read alike, the source gives them in different places.

What was measured:
[1] = target: human TYK2 (JH2domain-pseudokinase) (Homo sapiens (Human), UniProt P29597); assay: TYK2 JH2 Domain Binding Assay (KINOMEscan)
Method in brief: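 Competition binding of an NFkB-DBD fusion of human TYK2 JH2 (G556–D888), expressed in HEK293 and used as crude extract at <0.1 nM, against immobilized ligand beads; 1 h at room temperature in PBS/Tween/DTT/BSA buffer, 0.9% DMSO.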

JAK2 kinase domain (JH1) = JAK2 kinase domain (JH1) (Homo sapiens (Human), UniProt O60674); assay: JAK2 Radioactive Kinase Assay; type: biochemical; conditions: read-out: JAK2 JH1% Inhibition @ 10 μM
Method in brief: (§1)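 Values are single-concentration percent inhibition figures. They were obtained with 10 μM compound in a radioactivity-based kinase assay run separately on each enzyme.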

[2] = target: Tyk2/JAK2 (heterodimeric complex) (Homo sapiens (Human), UniProt P29597); assay: IL-12 Induced pSTAT4 in Human PBMC; type: cell-based; conditions: 1.7 ng/mL IL-12
Source text: The IL-12 Induced pSTAT4 assay evaluates the inhibition of IL-12 induced STAT4 phophorylation mediated by Tyk2/JAK2 (heterodimeric complex).

Tyk2 kinase domain (DH1) = Tyk2 kinase domain (DH1) (Homo sapiens (Human), UniProt P29597); assay: Tyk2 Radioactive Kinase Assay; type: biochemical; conditions: read-out: Tyk2 JH1% Inhibition @ 10 μM
Method in brief: as §1

[3] = target: JAK2/JAK2 homdimeric complex (Homo sapiens (Human), UniProt O60674); assay: GM-CSF Induced pSTAT5 in Human PBMC; type: cell-based; conditions: GM-CSF 5 ng/mL for 20 minutes, pSTAT5 by MSD, read-out: PBMC_GMCSF_pSTAT5 IC50
Chain of JAK2/JAK2 homdimeric complex (O60674 whole entry): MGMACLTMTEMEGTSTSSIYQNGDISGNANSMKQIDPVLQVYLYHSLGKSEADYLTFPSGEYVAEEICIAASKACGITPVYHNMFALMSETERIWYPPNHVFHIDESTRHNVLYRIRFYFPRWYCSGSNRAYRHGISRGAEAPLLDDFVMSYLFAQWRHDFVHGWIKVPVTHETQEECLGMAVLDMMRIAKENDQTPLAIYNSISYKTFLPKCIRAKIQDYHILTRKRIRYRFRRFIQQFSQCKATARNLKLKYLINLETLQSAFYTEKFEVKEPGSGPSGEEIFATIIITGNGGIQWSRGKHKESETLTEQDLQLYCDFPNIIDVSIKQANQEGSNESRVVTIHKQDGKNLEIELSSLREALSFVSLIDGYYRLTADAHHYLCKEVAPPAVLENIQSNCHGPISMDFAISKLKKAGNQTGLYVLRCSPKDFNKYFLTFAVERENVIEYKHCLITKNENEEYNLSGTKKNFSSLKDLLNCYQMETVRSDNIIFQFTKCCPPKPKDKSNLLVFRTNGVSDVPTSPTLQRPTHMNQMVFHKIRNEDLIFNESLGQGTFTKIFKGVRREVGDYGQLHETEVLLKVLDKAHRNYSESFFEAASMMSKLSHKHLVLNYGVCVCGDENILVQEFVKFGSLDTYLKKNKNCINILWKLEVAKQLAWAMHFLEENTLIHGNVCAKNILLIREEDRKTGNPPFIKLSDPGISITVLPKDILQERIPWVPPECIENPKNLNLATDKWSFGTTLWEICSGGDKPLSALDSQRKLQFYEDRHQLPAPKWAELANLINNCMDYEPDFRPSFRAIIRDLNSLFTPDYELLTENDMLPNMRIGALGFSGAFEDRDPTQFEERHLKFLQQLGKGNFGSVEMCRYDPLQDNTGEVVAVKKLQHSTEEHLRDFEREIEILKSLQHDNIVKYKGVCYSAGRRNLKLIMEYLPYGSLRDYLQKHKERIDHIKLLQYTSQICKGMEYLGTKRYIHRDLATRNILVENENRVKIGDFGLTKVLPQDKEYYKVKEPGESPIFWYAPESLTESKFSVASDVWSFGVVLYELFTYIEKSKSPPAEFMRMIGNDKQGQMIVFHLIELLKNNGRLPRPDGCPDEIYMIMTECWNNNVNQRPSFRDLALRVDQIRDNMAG
Chain of JAK2/JAK2 homdimeric complex (P32927 17-897 partner): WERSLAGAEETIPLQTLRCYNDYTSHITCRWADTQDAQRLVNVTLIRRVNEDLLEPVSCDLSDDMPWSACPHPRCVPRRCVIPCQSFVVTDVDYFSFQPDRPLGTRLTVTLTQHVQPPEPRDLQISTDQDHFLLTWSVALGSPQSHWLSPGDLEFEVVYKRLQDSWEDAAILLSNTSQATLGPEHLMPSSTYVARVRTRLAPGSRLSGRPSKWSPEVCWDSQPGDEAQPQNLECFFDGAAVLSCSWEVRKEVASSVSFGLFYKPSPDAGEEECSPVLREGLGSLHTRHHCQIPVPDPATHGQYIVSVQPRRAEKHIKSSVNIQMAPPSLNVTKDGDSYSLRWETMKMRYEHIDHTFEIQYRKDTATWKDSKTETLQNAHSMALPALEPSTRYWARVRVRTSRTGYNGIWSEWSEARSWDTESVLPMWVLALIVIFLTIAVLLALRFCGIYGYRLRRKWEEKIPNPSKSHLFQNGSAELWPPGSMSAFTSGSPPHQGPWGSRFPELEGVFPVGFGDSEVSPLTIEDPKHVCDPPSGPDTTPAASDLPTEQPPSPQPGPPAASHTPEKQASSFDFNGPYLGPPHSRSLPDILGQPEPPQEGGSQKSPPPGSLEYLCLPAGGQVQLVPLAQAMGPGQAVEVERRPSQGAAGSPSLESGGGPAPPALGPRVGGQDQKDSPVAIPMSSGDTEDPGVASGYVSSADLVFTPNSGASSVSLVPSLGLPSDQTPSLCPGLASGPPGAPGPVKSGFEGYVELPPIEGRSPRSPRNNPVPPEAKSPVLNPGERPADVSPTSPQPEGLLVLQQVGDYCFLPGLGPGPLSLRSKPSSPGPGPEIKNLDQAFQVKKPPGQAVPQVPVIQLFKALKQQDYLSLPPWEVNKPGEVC

Chain of Tyk2/JAK2 (heterodimeric complex) (P29597 whole entry, other chains not shown): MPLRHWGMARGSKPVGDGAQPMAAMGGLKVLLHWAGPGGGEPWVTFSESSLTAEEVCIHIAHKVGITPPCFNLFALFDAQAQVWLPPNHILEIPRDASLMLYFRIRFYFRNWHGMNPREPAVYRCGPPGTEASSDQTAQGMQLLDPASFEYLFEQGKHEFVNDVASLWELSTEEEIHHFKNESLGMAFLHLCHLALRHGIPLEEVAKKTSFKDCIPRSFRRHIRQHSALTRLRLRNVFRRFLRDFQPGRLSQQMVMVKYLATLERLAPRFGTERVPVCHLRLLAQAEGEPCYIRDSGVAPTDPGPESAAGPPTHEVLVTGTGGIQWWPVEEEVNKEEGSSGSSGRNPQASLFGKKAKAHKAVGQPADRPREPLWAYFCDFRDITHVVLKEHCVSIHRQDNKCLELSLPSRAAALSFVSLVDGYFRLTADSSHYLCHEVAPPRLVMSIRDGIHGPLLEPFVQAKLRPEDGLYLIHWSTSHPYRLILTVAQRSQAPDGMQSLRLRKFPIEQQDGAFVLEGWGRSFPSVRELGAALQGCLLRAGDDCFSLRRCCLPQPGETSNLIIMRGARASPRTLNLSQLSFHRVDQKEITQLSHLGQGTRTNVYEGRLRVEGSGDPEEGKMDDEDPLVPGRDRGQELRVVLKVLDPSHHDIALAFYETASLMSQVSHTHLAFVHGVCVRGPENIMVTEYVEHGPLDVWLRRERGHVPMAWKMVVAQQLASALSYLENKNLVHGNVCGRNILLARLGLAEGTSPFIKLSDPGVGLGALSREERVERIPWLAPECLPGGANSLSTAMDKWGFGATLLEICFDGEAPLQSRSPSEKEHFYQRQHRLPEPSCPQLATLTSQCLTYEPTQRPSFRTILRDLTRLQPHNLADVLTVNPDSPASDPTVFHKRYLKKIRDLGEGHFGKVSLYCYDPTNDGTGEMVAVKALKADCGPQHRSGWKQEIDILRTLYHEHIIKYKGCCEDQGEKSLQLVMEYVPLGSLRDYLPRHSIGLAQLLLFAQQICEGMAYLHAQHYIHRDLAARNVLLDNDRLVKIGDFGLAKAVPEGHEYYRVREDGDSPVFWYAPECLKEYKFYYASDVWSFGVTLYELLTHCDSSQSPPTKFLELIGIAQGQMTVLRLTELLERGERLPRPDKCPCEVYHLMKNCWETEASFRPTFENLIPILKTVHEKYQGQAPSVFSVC
Chain of Tyk2 kinase domain (DH1) (P29597 897-1176): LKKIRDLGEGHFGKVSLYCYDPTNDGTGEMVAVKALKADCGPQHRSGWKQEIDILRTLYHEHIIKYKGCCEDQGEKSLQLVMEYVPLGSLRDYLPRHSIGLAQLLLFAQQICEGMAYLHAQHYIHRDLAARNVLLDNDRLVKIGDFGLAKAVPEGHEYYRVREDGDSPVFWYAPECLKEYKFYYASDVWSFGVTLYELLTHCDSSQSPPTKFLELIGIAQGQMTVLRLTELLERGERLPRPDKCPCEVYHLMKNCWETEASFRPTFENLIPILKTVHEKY
Chain of JAK2 kinase domain (JH1) (O60674 849-1124): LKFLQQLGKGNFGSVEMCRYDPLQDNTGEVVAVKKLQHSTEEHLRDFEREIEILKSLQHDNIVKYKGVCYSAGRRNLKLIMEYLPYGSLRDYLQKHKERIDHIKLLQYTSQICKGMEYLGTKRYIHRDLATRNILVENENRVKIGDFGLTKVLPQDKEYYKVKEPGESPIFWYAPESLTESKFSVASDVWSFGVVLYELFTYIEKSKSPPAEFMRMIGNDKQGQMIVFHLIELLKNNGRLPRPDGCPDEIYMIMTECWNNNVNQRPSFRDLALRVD
Chain of human TYK2 (JH2domain-pseudokinase) (P29597 556-888): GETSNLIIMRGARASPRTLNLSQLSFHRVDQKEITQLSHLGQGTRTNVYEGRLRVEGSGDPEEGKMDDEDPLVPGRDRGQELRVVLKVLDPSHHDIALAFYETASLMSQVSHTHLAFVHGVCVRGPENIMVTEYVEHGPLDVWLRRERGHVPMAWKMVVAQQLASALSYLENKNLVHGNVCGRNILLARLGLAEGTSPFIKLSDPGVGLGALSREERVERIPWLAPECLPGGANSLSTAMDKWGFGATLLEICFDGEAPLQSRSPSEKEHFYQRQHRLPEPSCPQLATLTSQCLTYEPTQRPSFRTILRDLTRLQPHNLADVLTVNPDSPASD

SMILES	Kd [1]	inhibition at 10 µM (JAK2 kinase domain (JH1); compound at 10 μM, ATP 10 μM)	IC50 [2]	inhibition at 10 µM (Tyk2 kinase domain (DH1); compound at 10 μM, ATP 10 μM)	IC50 [3]	inhibition at 10 µM (JAK2 kinase domain (JH1); 10 μM compound, 10 μM ATP)	inhibition at 10 µM (Tyk2 kinase domain (DH1); 10 μM compound, 10 μM ATP)
CNc1cc(Nc2cccn([C@@H]3CCCOC3)c2=O)nc2c(C(=O)N[C@@H]3C[C@@H]3F)cnn12 [I-474]	< 0.2 nM	< 50%	< 100 nM	< 50%	> 12500 nM	–	–
CNc1cc(Nc2cccn(-c3ccc(C)nn3)c2=O)nc2c(C(=O)NC3CCC3)cnn12 [I-141]	< 0.2 nM	< 50%	< 100 nM	< 50%	> 50000 nM	–	–
CNc1cc(Nc2cccn(-c3cn(C)nc3F)c2=O)nc2c(C(=O)N[C@H]3C[C@H]3F)cnn12 [I-607]	< 0.2 nM	< 50%	< 100 nM	< 50%	> 50000 nM	–	–
CNc1cc(Nc2cccn([C@H]3[C@@H]4COC[C@@H]43)c2=O)nc2c(C(=O)N[C@@H]3C[C@@H]3F)cnn12 [I-811]	< 0.2 nM	–	< 100 nM	–	> 50000 nM	< 50%	< 50%
CNc1cc(-c2cn(C(C)C)c3ncccc23)nc2c(C(=O)NC3CCC3)cnn12 [I-224]	< 0.2 nM	< 50%	< 100 nM	< 50%	> 50000 nM	–	–
CNc1cc(Nc2cc(Cl)cn([C@@H]3CCCOC3)c2=O)nc2c(C(=O)NC3CC3)cnn12 [I-783]	< 0.2 nM	< 50%	< 100 nM	< 50%	> 50000 nM	–	–
CNc1cc(Nc2cccnc2OC)nc2c(C(=O)NCC(C)(C)CO)cnn12 [I-346]	< 0.2 nM	< 50%	< 100 nM	< 50%	> 2500 nM	–	–
[2H]C([2H])([2H])Oc1ncccc1Nc1cc(NC)n2ncc(C(=O)NC3CCC3)c2n1 [I-176]	< 0.2 nM	< 50%	< 100 nM	< 50%	> 50000 nM	–	–
CNc1cc(Nc2cccn([C@H]3CC[C@@](C)(OC)CC3)c2=O)nc2c(C(=O)N[C@H]3C[C@H]3F)cnn12 [I-360]	< 0.2 nM	< 50%	< 100 nM	< 50%	> 50000 nM	–	–
CNc1cc(Nc2cccn(-c3cc(C)nn3C)c2=O)nc2c(C(=O)NC3CCC3)cnn12 [I-342]	0.2 to 1 nM	< 50%	< 100 nM	< 50%	> 12500 nM	–	–
CNc1cc(-c2cn(C(C)C)c3ncccc23)nc2c(C(=O)N[C@@H]3CC[C@@H]3O)cnn12 [I-578]	< 0.2 nM	< 50%	< 100 nM	< 50%	> 50000 nM	–	–
CNc1cc(Nc2cc(C)cnc2OC2CC2)nc2c(C(=O)NC3CC3)cnn12 [I-277]	0.2 to 1 nM	< 50%	100 to 500 nM	< 50%	> 50000 nM	–	–
CNc1cc(Nc2cccn(-c3ccon3)c2=O)nc2c(C(=O)NC3CCC3)cnn12 [I-158]	< 0.2 nM	< 50%	< 100 nM	< 50%	> 50000 nM	–	–
CNc1cc(Nc2cccn(-c3nc(C)co3)c2=O)nc2c(C(=O)NC3CCC3)cnn12 [I-386]	< 0.2 nM	< 50%	< 100 nM	< 50%	> 50000 nM	–	–
CNc1cc(Nc2cccc(N3CCOC3=O)n2)nc2c(C(=O)N[C@H]3C[C@H]3F)cnn12 [I-236]	< 0.2 nM	< 50%	< 100 nM	< 50%	> 2500 nM	–	–
CNc1cc(Nc2cccn(-c3cnc(C(C)(C)O)cn3)c2=O)nc2c(C(=O)NC3CCC3)cnn12 [I-95]	< 0.2 nM	< 50%	< 100 nM	< 50%	> 50000 nM	–	–
CNc1cc(Nc2cccn(-c3cc(C)n(C)n3)c2=O)nc2c(C(=O)N[C@H]3C[C@H]3F)cnn12 [I-137]	< 0.2 nM	< 50%	< 100 nM	< 50%	> 50000 nM	–	–
